Experimental data: ChEMBL document CHEMBL2074397, “Molecular cloning and functional expression of a multispecific organic anion transporter from human kidney” (Am J Physiol, 1999)

How the values were obtained:
[1] = molecular target: T1, Solute carrier family 22 member 6 (SLC22A6) (Homo sapiens, UniProt Q4U2R8); test: TP_TRANSPORTER: inhibition of PAH uptake (PAH: 2 uM, Furosemide: 2000 uM) in Xenopus laevis oocytes; type: functional, cell-based, Oocyte; parameters: scale not given: the % may be the effect or the level left; details: Xenopus laevis oocytes expressing SLC22A6, probe PAH, read-out: Activity
T1 sequence (Q4U2R8 whole entry): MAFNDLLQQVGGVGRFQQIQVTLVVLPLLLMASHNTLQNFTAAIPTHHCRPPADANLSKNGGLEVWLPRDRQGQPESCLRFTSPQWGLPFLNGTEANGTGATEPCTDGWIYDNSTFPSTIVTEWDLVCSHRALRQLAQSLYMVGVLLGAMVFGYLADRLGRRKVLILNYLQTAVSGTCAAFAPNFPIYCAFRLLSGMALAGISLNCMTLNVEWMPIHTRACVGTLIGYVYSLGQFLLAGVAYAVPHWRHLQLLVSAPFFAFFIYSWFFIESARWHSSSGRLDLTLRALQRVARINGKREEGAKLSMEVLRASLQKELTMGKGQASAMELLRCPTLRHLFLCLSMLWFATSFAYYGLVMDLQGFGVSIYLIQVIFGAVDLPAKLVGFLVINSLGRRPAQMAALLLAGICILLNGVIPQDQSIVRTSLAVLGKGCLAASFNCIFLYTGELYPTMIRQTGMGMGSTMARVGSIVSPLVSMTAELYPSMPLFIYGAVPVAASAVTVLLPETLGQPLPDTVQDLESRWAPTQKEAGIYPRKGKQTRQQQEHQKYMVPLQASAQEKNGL

[2] = molecular target: T2, Solute carrier family 22 member 6 (Homo sapiens, UniProt Q4U2R8); test: TP_TRANSPORTER: inhibition of PAH uptake (PAH: 2 uM, Urate: 2000 uM) in Xenopus laevis oocytes; type: functional, cell-based; details: oocyte
T2 sequence (Q4U2R8 whole entry): T1 sequence (Q4U2R8 whole entry)

[3] = molecular target: T2, Solute carrier family 22 member 6; test: TP_TRANSPORTER: inhibition of PAH uptake (PAH: 2 uM, Indomethacin: 2000 uM) in Xenopus laevis oocytes; type: functional, cell-based; parameters: scale not given: the % may be the effect or the level left; details: oocyte

## NS(=O)(=O)c1cc(C(=O)O)c(NCc2ccco2)cc1Cl [FUROSEMIDE]
[1]
  activity at 2000 µM: < 0%

## O=c1[nH]c(=O)c2[nH]c(=O)[nH]c2[nH]1 [URIC ACID]
[2]
  Activity: inhibitor [(at a rough estimate) 5 % of control]

## COc1ccc2c(c1)c(CC(=O)O)c(C)n2C(=O)c1ccc(Cl)cc1 [INDOMETHACIN]
[3]
  Activity: < 0%
